The values below come from ChEMBL document CHEMBL1201862, “PubChem BioAssay data set” (2004).

Some test systems named below: NCI-H522; SN12C; SK-MEL-5; KM12; SR; NCI-H226; SF-539; HOP-92; U-251; M14; SF-295; RPMI-8226; SW-620; HOP-62; Malme-3M; OVCAR-8; CCRF-CEM; DU-145; TK-10; MCF7.
What all share (assay): NCI-60 cell line screen, 48 h

The structures appear in SMILES notation.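 Cells were grown in 96-well plates and exposed to each compound for 48 hours at five concentrations; endpoints were interpolated linearly between bracketing concentrations, or set to the highest concentration if not reached. GI50 = concentration required for 50% inhibition of growth.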 Activity calls are given as the source filed them. Rule as the data show it: active = GI50 up to about 1.1 µM and inactive = higher.

On to `Nc1c(C(=O)Nc2ccccc2O)[n+]([O-])c2ccccc2[n+]1[O-]`, for which the GI50 in the assay with NCI-H522 is 43.4 µM (inactive); in the assay with SN12C, 63.2 µM (inactive); in the assay with SK-MEL-5, 14.7 µM (inactive); in the assay on KM12 it was 79.3 µM (inactive); in the assay with SR, 44.3 µM (inactive); in the assay with NCI-H226, > 100 µM (inactive). The GI50 with SF-539 was 32.3 µM (inactive); in the assay on HOP-92 it was > 100 µM (inactive); in the assay with U-251, 71.8 µM (inactive); with M14, > 100 µM (inactive); in the assay with SF-295 it was 58.9 µM (inactive); with RPMI-8226 it was 22.3 µM (inactive). Further, the GI50 in the assay with SW-620 is 21 µM (inactive); in the assay on HOP-62, > 100 µM (inactive); in the assay on Malme-3M, 83.9 µM (inactive); with OVCAR-8 it was 64.1 µM (inactive).

With `CCCCOC(=O)c1cc(C(=CCC[C@H]2CC[C@@]3(C)[C@@H](CC[C@@H]4[C@@H]3CC[C@]3(C)[C@@H](C(C)CCCC(C)C)CC[C@@H]43)C2)c2cc(Cl)c(O)c(C(=O)OCCCC)c2)cc(Cl)c1O` (stereo partly specified), the GI50 with SN12C, in the assay with CCRF-CEM, with SK-MEL-5, with KM12, in the assay with DU-145 and with NCI-H226 was > 50 µM (inactive) each time. Besides, the GI50 in the assay with HOP-92, in the assay on U-251, in the assay on RPMI-8226, in the assay with SW-620, in the assay on HOP-62 and in the assay with OVCAR-8 was > 50 µM (inactive) in each case.

On to `O=C(OCc1ccccc1)n1cccc1`, for which the GI50 was > 100 µM (inactive) in the assay on NCI-H522; > 100 µM (inactive) in the assay on SN12C; > 100 µM (inactive) with CCRF-CEM; > 100 µM (inactive) with SK-MEL-5; > 100 µM (inactive) with KM12; 88.3 µM (inactive) in the assay on SR. Further, the GI50 in the assay with TK-10, with NCI-H226, in the assay with SF-539, in the assay with HOP-92, in the assay on U-251 and in the assay on M14 was > 100 µM (inactive) each time. Also, the GI50 is > 100 µM (inactive) with SF-295; 54.6 µM (inactive) in the assay with RPMI-8226; > 100 µM (inactive) with SW-620; > 100 µM (inactive) with HOP-62; > 100 µM (inactive) in the assay on Malme-3M; > 100 µM (inactive) with OVCAR-8.

Turning to `O=C1N(c2ccc(Cl)cc2)C(=O)C2(SC=NN2Cc2ccccc2)N1c1ccc(Cl)cc1` (stereo unspecified), the GI50 with NCI-H522 was 7.76 µM (inactive); with SN12C, > 100 µM (inactive); in the assay with CCRF-CEM, 7.57 µM (inactive); in the assay on SK-MEL-5, > 100 µM (inactive); in the assay on KM12 it was > 100 µM (inactive); in the assay on SR, 9.95 µM (inactive). In addition, the GI50 in the assay with TK-10 was > 100 µM (inactive); in the assay on NCI-H226, > 100 µM (inactive); in the assay on SF-539, 34.3 µM (inactive); with HOP-92 it was > 100 µM (inactive); with U-251, > 100 µM (inactive); in the assay with M14, > 100 µM (inactive). The GI50 in the assay with SF-295 was > 10 µM (inactive); with RPMI-8226, 8.34 µM (inactive); in the assay on SW-620 it was > 100 µM (inactive); in the assay on HOP-62 it was > 100 µM (inactive); in the assay with Malme-3M, > 100 µM (inactive); with OVCAR-8 it was > 100 µM (inactive).

Turning to `C/C(=N\NC(=S)NC(CCC(=O)O)C(=O)O)c1ccccn1` (stereo unspecified), the GI50 with NCI-H522, in the assay on SN12C, in the assay on CCRF-CEM, in the assay on SK-MEL-5, with KM12 and with SR was > 100 µM (inactive) each time. Also, the GI50 in the assay with TK-10, in the assay on NCI-H226, in the assay with SF-539, with HOP-92, in the assay on U-251 and in the assay on M14 was > 100 µM (inactive) in each case. Also, the GI50 in the assay on SF-295, in the assay on RPMI-8226, in the assay with SW-620, in the assay on HOP-62, with Malme-3M and in the assay with OVCAR-8 was > 100 µM (inactive) each time.

As to `CNC(=O)c1nn[nH]c1Sc1c([N+](=O)[O-])ncn1C`, the GI50 with NCI-H522, with SN12C, in the assay on CCRF-CEM, with SK-MEL-5, in the assay on KM12 and with DU-145 was > 100 µM (inactive) each time. In addition, the GI50 with TK-10, in the assay with SF-539, in the assay on HOP-92, in the assay with U-251, with M14 and with SF-295 was > 100 µM (inactive) throughout. Moreover, the GI50 in the assay on SW-620, in the assay with MCF7, with HOP-62 and in the assay on OVCAR-8 was > 100 µM (inactive) throughout.

As to `O=C(O)c1ccccc1NC(=S)c1ccccc1`, the GI50 with NCI-H522 is 13.5 µM (inactive); in the assay on SN12C it was 66.4 µM (inactive); in the assay with CCRF-CEM, 45.5 µM (inactive); in the assay on SK-MEL-5, 38.5 µM (inactive); in the assay on KM12 it was 50.2 µM (inactive); in the assay with DU-145 it was > 100 µM (inactive). Further, the GI50 in the assay with TK-10 was 35.8 µM (inactive); with SF-539, 44.4 µM (inactive); in the assay on HOP-92 it was 11.8 µM (inactive); with U-251 it was 47.8 µM (inactive); in the assay with M14, 70.5 µM (inactive); with SF-295 it was 35.2 µM (inactive). The GI50 with RPMI-8226 was 28.2 µM (inactive); with SW-620, 46.5 µM (inactive); in the assay with MCF7, 31.3 µM (inactive); with HOP-62 it was 50.4 µM (inactive); with Malme-3M, 19.1 µM (inactive); in the assay with OVCAR-8 it was 33.9 µM (inactive).

Regarding `C=C1CC[C@]2(C)[C@H](CC[C@@]34C[C@@H](CC[C@H]32)[C@@H](C(=O)O)C4)C1(C)C`, the GI50 was > 12.5 µM (inactive) in the assay on SN12C; 7.05 µM (inactive) in the assay on CCRF-CEM; 8.24 µM (inactive) in the assay with SK-MEL-5; > 12.5 µM (inactive) with KM12; 6.37 µM (inactive) in the assay on SR; > 12.5 µM (inactive) in the assay on TK-10. The GI50 with NCI-H226 was > 12.5 µM (inactive); in the assay on SF-539, 6.19 µM (inactive); in the assay with HOP-92 it was 5.5 µM (inactive); in the assay on U-251, > 12.5 µM (inactive); in the assay on M14, > 12.5 µM (inactive); in the assay on SF-295, 8.24 µM (inactive). For the same compound, the GI50 in the assay on SW-620 is > 12.5 µM (inactive); in the assay with MCF7, > 12.5 µM (inactive); in the assay with HOP-62, 5.36 µM (inactive); in the assay with Malme-3M it was > 12.5 µM (inactive); in the assay on OVCAR-8, > 12.5 µM (inactive).

In the case of `CCOC(=O)C1(C)CCc2sc(N)c(C#N)c21` (stereo unspecified), the GI50 in the assay with SN12C, in the assay with CCRF-CEM, in the assay on SK-MEL-5, with KM12, in the assay on TK-10 and in the assay on NCI-H226 was > 100 µM (inactive) throughout. Also, the GI50 in the assay on HOP-92, in the assay on U-251, with M14, with RPMI-8226, in the assay with SW-620 and with MCF7 was > 100 µM (inactive) throughout. Moreover, the GI50 with HOP-62, with Malme-3M and in the assay on OVCAR-8 was > 100 µM (inactive) in each case.

Take `O=c1[nH]c(=O)n(C2OC(COP(=O)(O)OP(=O)(O)OC3OC(CO)C(O)C(O)C3O)C(O)C2O)cc1F` (stereo unspecified): the GI50 with NCI-H522 is 0.327 µM (active); in the assay with SN12C, 0.0809 µM (active); with CCRF-CEM it was 0.0929 µM (active); in the assay with SK-MEL-5, 0.407 µM (active); with KM12 it was 0.0317 µM (active); in the assay with SR, 0.0418 µM (active). Besides, the GI50 in the assay with TK-10 is 1.67 µM (inactive); with NCI-H226, 0.148 µM (active); in the assay with SF-539 it was 0.0552 µM (active); in the assay on HOP-92, 1.12 µM (active); with U-251, 0.0577 µM (active); with M14, 0.234 µM (active). For the same compound, the GI50 in the assay on SF-295 is 0.127 µM (active); in the assay with RPMI-8226, < 0.01 µM (active); in the assay on SW-620, 0.0504 µM (active); with HOP-62, 0.302 µM (active); with Malme-3M, 0.21 µM (active); in the assay with OVCAR-8, 0.0966 µM (active).

Take `CC(C)C1=CC23CCC4C(C)(C(=O)O)CCCC4(C)C2CC1C1C(=O)N(c2ccccc2)C(=O)C13` (stereo unspecified): the GI50 is 49.1 µM (inactive) with NCI-H522; 45.9 µM (inactive) with SN12C; 56.6 µM (inactive) with CCRF-CEM; 44.2 µM (inactive) in the assay on SK-MEL-5; 27.9 µM (inactive) in the assay with KM12; > 100 µM (inactive) in the assay with SR. Further, the GI50 in the assay on TK-10 is 43.5 µM (inactive); in the assay with NCI-H226, 15.5 µM (inactive); with SF-539, 51.3 µM (inactive); in the assay on HOP-92 it was 32.7 µM (inactive); in the assay with U-251, 36.6 µM (inactive); in the assay on M14 it was 40.5 µM (inactive). The GI50 in the assay with SF-295 is 51.2 µM (inactive); in the assay on RPMI-8226, > 100 µM (inactive); in the assay on SW-620 it was 54 µM (inactive); in the assay on HOP-62, 51.3 µM (inactive); in the assay on Malme-3M it was 67.9 µM (inactive); in the assay on OVCAR-8, 64 µM (inactive).

For the compound `CC1=C2C(=CC(C)(C)C2O)C(=O)C(C)(O)C12CC2` (stereo unspecified), the GI50 with NCI-H522 is 0.00469 µM (active); with SN12C it was 0.0189 µM (active); in the assay on CCRF-CEM, 0.00531 µM (active); in the assay on SK-MEL-5, 0.00567 µM (active); in the assay on KM12, 0.0158 µM (active); with SR, 0.00249 µM (active). The GI50 in the assay on TK-10 is 0.0216 µM (active); in the assay on NCI-H226, 0.033 µM (active); with SF-539, 0.0209 µM (active); in the assay with HOP-92, 0.0167 µM (active); in the assay on U-251, 0.0059 µM (active); in the assay with M14, 0.0158 µM (active). Moreover, the GI50 in the assay with SF-295 is 0.00724 µM (active); with SW-620, 0.00305 µM (active); in the assay with HOP-62, 0.0119 µM (active); with Malme-3M it was 0.012 µM (active); in the assay on OVCAR-8, 0.00948 µM (active).
